Test results published in US9562031B1, “Phenethyldihydrobenzodioxolones and methods of use” (Sequoia Sciences, Inc., priority 2015, dated 2017).

Key:
NCI-H187 cells = experiment: antiproliferation assay, NCI-H187; format: cell-based; settings: Homo sapiens
Method: (§1) For the antiproliferation assay, NCI-H460 (large cell lung carcinoma) or M14 (amelanotic melanoma) cells were grown in RPMI-1640 with 10% FBS supplemented with L-glutamine and HEPES. Cells were seeded into 96-well plates at 5×10^2 to 5×10^4 cells/well and allowed to adhere overnight; the medium was then removed. A stock solution of test compound in DMSO was diluted in medium to generate a series of working solutions. Aliquots (100 μl) of the working solutions were then added to the appropriate test wells to expose cells to the final concentrations of compound in a total volume of 100 μl. Seven different concentrations were tested, with 2-5 wells per concentration. Camptothecin was used as a positive control; wells containing vehicle without compound were used as negative controls. Plates were kept for 72 h in a 37° C., 5% CO2 incubator. After incubation, viable cells were detected with the CELLTITER 96 AQueous Non-Radioactive Cell Proliferation Assay (Promega), and IC50 values were determined using GraphPad Prism 5 software.
(§2) Antiproliferation of several of the active compounds was tested against additional cell lines.

UO-31 cells = experiment: antiproliferation assay, paclitaxel-resistant UO-31; format: cell-based; settings: Homo sapiens
Method: as §1
Compound 4 was tested for antiproliferation activity against several paclitaxel-resistant human cancer cell lines.

MOLT-4 cells = experiment: antiproliferation assay, MOLT-4; format: cell-based; settings: Homo sapiens
Method: as §1, §2

SF-539 cells = experiment: NCI-60 panel antiproliferation, SF-539; format: cell-based, human; settings: Homo sapiens, NCI 60-cell panel
Method: (§3) Bifidenone and Compound 37 were tested for antiproliferation activity against the NCI-60 panel of cancer cell lines. COMPARE analysis was then conducted to compare the activity “fingerprint” of bifidenone to those of known classes of compounds (Zhou, B.-N., Hoch, J. M., Johnson, R. K., Mattern, M. R., Eng, W.-K., Ma, J., Hecht, S. M., Newman, D. J., Kingston, D. G. I., 2000. Use of COMPARE Analysis to Discover New Natural Product Drugs: Isolation of Camptothecin and 9-Methoxycamptothecin from a New Source. Journal of Natural Products 63, 1273-1276.).

HCT-116 cells = experiment: NCI-60 panel antiproliferation, HCT-116; format: cell-based, human; settings: Homo sapiens, NCI 60-cell panel
Method: as §3

T-47D cells = experiment: NCI-60 panel antiproliferation, T-47D; format: cell-based, human; settings: Homo sapiens, T47D, NCI 60-cell panel
Method: as §3

BT-549 cells = experiment: NCI-60 panel antiproliferation, BT-549; format: cell-based, human; settings: Homo sapiens, NCI 60-cell panel
Method: as §3

Hs578T cells = experiment: NCI-60 panel antiproliferation, Hs578T; format: cell-based, human; settings: Homo sapiens, Hs-578T, NCI 60-cell panel
Method: as §3

SK-Mel-2 cells = experiment: NCI-60 panel antiproliferation, SK-MEL-2; format: cell-based, human; settings: Homo sapiens, NCI 60-cell panel
Method: as §3

RXF-393 cells = experiment: NCI-60 panel antiproliferation, RXF-393; format: cell-based, human; settings: Homo sapiens, NCI 60-cell panel
Method: as §3

Row | SMILES | IC50 (NCI-H187 cells) [nM] | IC50 (UO-31 cells) [nM] | IC50 (MOLT-4 cells) [nM] | IC50 (SF-539 cells) [nM] | IC50 (HCT-116 cells) [nM] | IC50 (T-47D cells) [nM] | IC50 (BT-549 cells) [nM] | IC50 (Hs578T cells) [nM] | IC50 (SK-Mel-2 cells) [nM] | IC50 (RXF-393 cells) [nM]
1 | C=CC[C@H]1C[C@]2([C@H](C)Cc3cc(O)c(OC)cc3F)OCOC2=CC1=O (relative stereo) [Compound 4, 6-allyl-7a-(1-(2-fluoro-5-hydroxy-4-methoxyphenyl)propan-2-yl)-7,7a-dihydrobenzo[d][1,3]dioxol-5(6H)-one] | 21 | 7 | 28 |  |  |  |  |  |  | 
2 | C=CC[C@H]1C[C@]2([C@@H](C)Cc3ccc(OC)c(F)c3)OCOC2=CC1=O [Compound 37, (6S,7aR)-6-allyl-7a-((S)-1-(3-fluoro-4-methoxyphenyl)propan-2-yl)-7,7a-dihydrobenzo[d][1,3]dioxol-5(6H)-one] |  |  |  | 74 | 115 | > 10000 | 63 | 72 | 51 | 95
